Patent US8664276B2, “Stilbene analogs and methods of treating cancer” (University of Kentucky Research Foundation, priority 2011, dated 2014)
“Also recorded” adds a separate entry of the source.

Columns and labels:
[1] = test system: LS174 CRC cells; experiment: CRC cell proliferation assay (Vi-Cell); type: cell-based; conditions: for colon cancer cell proliferation, effectiveness versus resveratrol and 4r: FIG. 14
Protocol: Luciferase and cell proliferation assay. HEK293T cells were transiently transfected in a 12-well plate with 0.2 μg of the Super8xTOPFlash reporter and 0.05 μg of Renilla luciferase reporter. Culture medium was changed after 12 h. After 6 h, cells were treated with DMSO or Wnt inhibitors for 12 h, and then treated with 25 mM LiCl or Wnt conditioned medium. After 12 h, cells were harvested and luciferase activity measured by Dual-luciferase Reporter Assay System (Promega, Madison Wis.). All conditions were done in triplicate and each experiment was carried out at least two times. For cell proliferation assay, CRC cells were treated with DMSO or inhibitors for 2d and 4d. The cell numbers and viability were analyzed by Vi-Cell Cell Viability Analyzer.
(§1) Western blot and cell proliferation assay. The activity of fluorinated N,N-dialkylaminostilbenes (FIDAS or FIDAS agents) on Wnt signaling activity in cancer cells were analyzed by Western blot with antibodies against Wnt target genes, such as c-Myc, Axin2. The effects of FlDAS agents on cancer cell growth were analyzed using Cell Viability Analyzer (Beckman Coulter, Vi-Cell XR). These assays have been described previously (see Zhang et al., J. of Med. Chem. 54, 1288-1297 (2011)).

[2] = test system: liver cancer cells; experiment: Liver cancer cell proliferation; type: cell-based; conditions: FIG. 15
Protocol: as §1
As previously shown, several metabolites of the halogenated stilbenes of the present disclosure were synthesized (Example 2 and FIG. 3). In this study, the effects of some of these metabolites on cell proliferation were studied.

[3] = test system: Wnt target genes, Axin2 and c-Myc; experiment: Western blot of Wnt target proteins in LS174 CRC cells; type: cell-based
Protocol: Western blot. Western blots were performed using the following antibodies: β-catenin (Sigma, C2206), c-Myc (Epitomics, 1472-1), Axin2 (Cell Signaling, 2151), β-Actin (Sigma, A1978), TCF4 (Epitomics, 2114-1) and pygopus2 (Santa Cruz, sc-74878), Cyclin D1 (Cell signaling, 2926).
Cyclin B1 levels were decreased, whereas p21^WAF1/CIP1 levels increased, consistent with the fact that p21^WAF1/CIP1 expression is repressed by c-Myc. β-catenin levels were not affected by resveratrol. Next, the mRNA levels of β-catenin target genes were analyzed using RT-PCR. Expression of survivin, Lgr5, CD44, and c-Myc were decreased in resveratrol-treated cells.
A panel of stilbene analogs was designed and synthesized (FIGS. 2, 3, 5A and 6A). […] However, the solubility of 4d was poor and it was not effective below 10 μM concentrations (data not shown). To improve its solubility and activity, compound 4d was modified with 2′-fluoro 4e, 3′-fluoro 4f and 4′-fluoro 4g substituents (FIG. 5D). Both compounds 4e and 4f had good activity at 10 μM, (E)-4-(2-fluorostyryl)-N,N-dimethylaniline.
as §1

[4] = test system: Wnt signaling; experiment: TopFlash luciferase reporter assay in HEK293T cells; type: cell-based
Protocol: Luciferase and cell proliferation assay. HEK293T cells were transiently transfected in a 12-well plate with 0.2 μg of the Super8xTOPFlash reporter and 0.05 μg of Renilla luciferase reporter. Culture medium was changed after 12 h. After 6 h, cells were treated with DMSO or Wnt inhibitors for 12 h, and then treated with 25 mM LiCl or Wnt conditioned medium. After 12 h, cells were harvested and luciferase activity measured by Dual-luciferase Reporter Assay System (Promega, Madison Wis.). All conditions were done in triplicate and each experiment was carried out at least two times. For cell proliferation assay, CRC cells were treated with DMSO or inhibitors for 2d and 4d. The cell numbers and viability were analyzed by Vi-Cell Cell Viability Analyzer. To identify Wnt pathway inhibitors for CRC prevention and treatment, a number of anti-cancer agents from plants were screened using the TopFlash reporter assay. The TopFlash reporter was transfected into HEK293T cells, and the cells were treated with Wnt3A-conditioned medium in order to activate the luciferase reporter. […] To determine if resveratrol regulates β-catenin degradation, the cells were treated with 25 mM LiCl, which inhibits GSK-3 and stabilizes β-catenin. In this assay, LiCl activated the reporter more strongly than Wnt3A conditioned medium. […] Emodin is an anti-cancer agent from plants; it exists in many unpurified resveratrol products. Emodin had no effect on Wnt signaling. See Zhang et al., J. of Med. Chem. 54, 1288-1297 (2011).

Row | Compound | melting point | Wnt inhibitory activity in Western blot, qualitative or relative to a comparator ([3]; CRC cells) | further results
1 | C[N+](C)([O-])c1ccc(/C=C/c2c(F)cccc2Cl)cc1 [4aa, (E)-4-(2-chloro-6-fluorostyryl)-N,N-dimethylaniline oxide] | 82 to 84 °C |  | colon cancer cell proliferation, effectiveness versus resveratrol and 4r [1]: significantly more effective than resveratrol, as well as compound 4r; liver cancer cell proliferation, effectiveness versus resveratrol and 4r [2]: significantly more effective than resveratrol, as well as compound 4r
2 | COc1ccc(/C=C/c2ccccc2)cc1 [4b, (E)-4-Methoxystilbene] | 136 to 137 °C |  | 
3 | C[N+](C)([O-])c1ccc(/C=C/c2c(Cl)cccc2Cl)cc1 [4bb, (E)-4-(2,6-dichlorostyryl)-N,N-dimethylaniline oxide] | 80 to 82 °C |  | 
4 | Nc1ccc(C=Cc2ccccc2)cc1 [4c, 4-aminostilbene, reference compound] |  |  | repression of Wnt target genes at 30 μM ([3]; 30 μM, CRC cells): represses Wnt target genes
5 | CN(C)c1ccc(/C=C/c2ccccc2F)cc1 [4e, (E)-4-(2-Fluorostyryl)-N,N-dimethylaniline] | 124 to 126 °C | best among all of the monofluoro-substituted compounds | repression of Wnt target genes at 10 μM ([3]; CRC cells): good activity; CRC cell growth inhibition compared with other compounds ([1]; cell proliferation assay): significantly better inhibitor
6 | CNc1ccc(C=Cc2c(Cl)cccc2Cl)cc1 [4ee, (E and Z)-4-(2,6-dichlorostyryl)-N-methylaniline] |  |  | colon cancer cell proliferation, effectiveness versus resveratrol and 4r [1]: significantly more effective than resveratrol, as well as compound 4r; liver cancer cell proliferation, effectiveness versus resveratrol and 4r [2]: significantly more effective than resveratrol, as well as compound 4r
7 | CN(C)c1ccc(/C=C/c2cccc(F)c2)cc1 [4f, (E)-4-(3-Fluorostyryl)-N,N-dimethylaniline] | 147 to 148 °C |  | repression of Wnt target genes at 10 μM ([3]; CRC cells): good activity
8 | CN(C)c1ccc(/C=C/c2ccc(F)cc2)cc1 [4g, (E)-4-(4-Fluorostyryl)-N,N-dimethylaniline] | 197 to 198 °C |  | 
9 | CCN(CC)c1ccc(/C=C/c2ccccc2F)cc1 [4h, (E)-4-(2-Fluorostyryl)-N,N-diethylaniline] | 78 to 79 °C | not as potent as compound 4e | repression of Wnt target genes at 10 μM ([3]; CRC cells): active
10 | Fc1ccccc1/C=C/c1ccc(N(c2ccccc2)c2ccccc2)cc1 [4i, (E)-4-(2-Fluorostyryl)-N,N-diphenylaniline] | 114 to 115 °C |  | repression of Wnt target genes at 10 μM ([3]; CRC cells): inactive
11 | CN1CCN(c2ccc(/C=C/c3ccccc3F)cc2)CC1 [4j, (E)-1-(4-(2-Fluorostyryl)phenyl)-4-methylpiperazine] | 142 to 144 °C |  | 
12 | CN(C)c1ccc(/C=C/c2ccccc2F)c2ccccc12 [4k, (E)-4-(2-Fluorostyryl)-N,N-dimethylnaphthalen-1-amine] | 56 to 58 °C |  | 
13 | CN(C)c1ccc(/C=C/c2cccc(F)c2F)cc1 [4m, (E)-4-(2,3-Difluorostyryl)-N,N-dimethylaniline] | 132 to 133 °C | more active than compound 4e | repression of Wnt target genes at 10 μM ([3]; CRC cells): repress Wnt target genes
14 | CN(C)c1ccc(/C=C/c2ccc(F)cc2F)cc1 [4n, (E)-4-(2,4-Difluorostyryl)-N,N-dimethylaniline] | 139 to 140 °C |  | 
15 | CN(C)c1ccc(/C=C/c2cc(F)ccc2F)cc1 [4o, (E)-4-(2,5-Difluorostyryl)-N,N-dimethylaniline] | 146 to 147 °C | more active than compound 4e | repression of Wnt target genes at 10 μM ([3]; CRC cells): repress Wnt target genes
16 | CN(C)c1ccccc1/C=C/c1c(F)cccc1F [4p, (E)-2-(2,6-Difluorostyryl)-N,N-dimethylaniline] |  | not as active as compound 4r | 
17 | CN(C)c1cccc(/C=C/c2c(F)cccc2F)c1 [4q, (E)-3-(2,6-Difluorostyryl)-N,N-dimethylaniline] | 69 to 71 °C | not as active as compound 4r | 
18 | CCN(CC)c1ccc(/C=C/c2c(F)cccc2F)cc1 [4s, (E)-4-(2,6-Difluorostyryl)-N,N-diethylaniline] | 70 to 71 °C | slightly less active than compound 4r; also recorded: active Wnt inhibitor | 
19 | CN(C)c1ccc(/C=C/c2ccc(F)c(F)c2)cc1 [4t, (E)-4-(3,4-Difluorostyryl)-N,N-dimethylaniline] | 159 to 160 °C |  | 
20 | CN(C)c1ccc(/C=C/c2cc(F)cc(F)c2)cc1 [4u, (E)-4-(3,5-Difluorostyryl)-N,N-dimethylaniline] | 136 to 137 °C |  | 
21 | CN(C)c1ccc(/C=C/c2c(F)ccc(F)c2F)cc1 [4v, (E)-N,N-Dimethyl-4-(2,3,6-trifluorostyryl)aniline] | 91 to 92 °C | no significant improvements over compound 4r | repression of Wnt target genes at 10 μM ([3]; CRC cells): active
22 | CN(C)c1ccc(/C=C/c2c(F)cc(F)cc2F)cc1 [4w, (E)-N,N-Dimethyl-4-(2,4,6-trifluorostyryl)aniline] | 127 to 128 °C | no significant improvements over compound 4r | repression of Wnt target genes at 10 μM ([3]; CRC cells): active
23 | CN(C)c1ccc(/C=C/c2c(F)cccc2Cl)cc1 [4x, (E)-4-(2-chloro-6-fluorostyryl)-N,N-dimethylaniline] | 42 to 44 °C |  | 
24 | CN(C)c1ccc(/C=C/c2c(Cl)cccc2Cl)cc1 [4y, (E)-4-(2,6-dichlorostyryl)-N,N-dimethylaniline] | 96 to 97 °C |  | 
25 | C[N+](C)([O-])c1ccc(/C=C/c2c(F)cccc2F)cc1 [4z, (E)-4-(2,6-difluorostyryl)-N,N-dimethylaniline oxide] | 100 to 103 °C |  | 
26 | CN(C)c1ccc(CCc2c(F)cccc2F)cc1 [5r, (E)-4-(2,6-Difluorophenethyl)-N,N-dimethylaniline] |  | the activity was lost | 
27 | Cc1cc(O)c2c(c1)C(=O)c1cc(O)cc(O)c1C2=O [Emodin] |  |  | effect on Wnt signaling [4]: no effect
28 | Oc1ccc(/C=C\c2cc(O)cc(O)c2)cc1 [cis- or (Z)-resveratrol, reference compound] |  |  | protein levels of c-Myc and Cyclin D1 ([3]; LS174 CRC cells): reduced by resveratrol but not its isomer
